As a reminder, the IC50 is the concentration needed to halve the response being measured.

Series [1] deals with BV-2. The series is described as follows: Cytotoxicity against mouse BV2 cells assessed as effect on cell survival by MTT assay. It counts as cell-based. On the technique in general: Formazan colour is commonly taken as a measure of viable cells.
In series [2] the test system is BV-2. In words: Antiinflammatory activity in mouse BV2 cells assessed as inhibition of LPS-induced nitric oxide production incubated for 24 hrs by Griess assay. The conditions noted are these: BV-2, 24 h. It counts as functional, cell-based.

With `CSC(=N)N.O=S(=O)(O)O`, the Activity result in series [1] is “Non-Toxic”. Besides, the IC50 in series [2] was found to be 3.1 µM.
Taken in the same sequence, the figures for `CC1(C)CCC[C@]2(C)[C@@H]1CC[C@@]13O[C@@H]1C1=C(CO)C(=O)OC1=C[C@@H]23` were “Non-Toxic” and 9.1 µM.
The like results for `CCCC(=O)OC[C@]1(C)C(=O)CC[C@@]2(C)[C@@H]3CC[C@@H]4C[C@@]3(CC[C@@H]21)C[C@@]4(O)CO` were, in that order, “Non-Toxic” and 42.9 µM.
The like results for `C/C=C(\C)C(=O)O[C@H]1[C@H]2[C@@H]([C@@H](OC(C)=O)[C@@H](C)C(=O)[C@@]34C[C@H](C)[C@H](OC(=O)c5ccccc5)[C@]3(/C=C(\C)[C@H]1O)O4)C2(C)C` were, in that order, “Non-Toxic” and 14.5 µM.
In the case of `C=C1C[C@@]23CC[C@H]4[C@@](C)(CCC(=O)[C@@]4(C)COC(C)=O)[C@@H]2C[C@@H]1[C@@H](O)C3=O`, the Activity result in series [1] is “Non-Toxic”. Moreover, the IC50 in series [2] was > 100 µM.
On to `CC1(C)C(=O)CC[C@]2(C)[C@@H]1CC[C@@]13C[C@H](CC[C@H]12)[C@@](O)(CO)C3`, for which, in series [1], the Activity result is reported as “Non-Toxic”. The IC50 in series [2] is > 100 µM.
Taken in the same sequence, the figures for `C=C1C[C@@]23CC[C@H]4[C@@](C)(CCC(=O)[C@@]4(C)COC(=O)/C(C)=C/C)[C@@H]2C[C@@H]1[C@@H](O)C3=O` were “Non-Toxic” and 44.3 µM.
The like results for `C=C1C[C@@]23CC[C@H]4[C@@](C)(CCC(=O)[C@@]4(C)COC(=O)CCC)[C@@H]2C[C@@H]1[C@@H](O)C3=O` were, in that order, “Non-Toxic” and > 100 µM.
The like results for `C=C1C[C@]23CC[C@H]1C[C@H]2[C@]1(C)CCC(=O)[C@@](C)(CO)[C@H]1CC3` were, in that order, “Non-Toxic” and 25.4 µM.
`CCC(=O)OC[C@]1(C)C(=O)CC[C@@]2(C)[C@@H]3C[C@@H]4CC[C@@]3(CC[C@@H]21)C[C@@]4(O)CO`: the Activity result in series [1] is “Non-Toxic”. In addition, the concentration for half-maximal inhibition (IC50) in series [2] was 76.6 µM.
The like results for `C/C=C(\C)C(=O)O[C@H]1[C@H]2[C@@H]([C@@H](OC(C)=O)[C@@H](C)C(=O)[C@@]34C[C@H](C)[C@H](OC(=O)/C(C)=C/C)[C@]3(/C=C(\C)[C@H]1O)O4)C2(C)C` were, in that order, “Non-Toxic” and 26.9 µM.
In the case of `CC1=C2[C@H]3O[C@]34CC[C@@H]3C(C)(C)CCC[C@@]3(C)[C@@H]4C[C@H]2OC1=O`, the Activity result in series [1] is reported as “Non-Toxic”. For the same compound, the IC50 in series [2] amounted to 15 µM.
With `C=C1C[C@@]23CC[C@H]4[C@@](C)(CCC(=O)[C@@]4(C)COC(C)=O)[C@@H]2C[C@@H]1CC3=O`, the Activity result in series [1] is “Non-Toxic”. For the same compound, the IC50 in series [2] turned out to be 77 µM.
Turning to `C=C1C[C@@]23CC[C@H]4[C@@](C)(CCC(=O)[C@@]4(C)COC(=O)/C(C)=C/C)[C@@H]2C[C@@H]1CC3=O`, in series [1], the Activity entry is “Non-Toxic”. Moreover, the IC50 in series [2] came to 28.8 µM.
Taken in the same sequence, the figures for `C/C=C(\C)C(=O)O[C@H]1[C@H]2[C@@H]([C@@H](OC(C)=O)[C@@H](C)C(=O)[C@@]34C[C@H](C)[C@H](OC(C)=O)[C@]3(/C=C(\C)[C@H]1O)O4)C2(C)C` were “Non-Toxic” and > 100 µM.
Taken in the same sequence, the figures for `C=C1C[C@@]23CC[C@H]4[C@@](C)(CCC(=O)[C@@]4(C)COC(=O)CCC)[C@@H]2C[C@@H]1CC3=O` were “Non-Toxic” and > 60 µM.
The like results for `CCCC(=O)OC[C@]1(C)C(=O)CC[C@@]2(C)[C@@H]3C[C@@H]4CC[C@@]3(CC[C@@H]21)C[C@@]4(O)CO` were, in that order, “Non-Toxic” and 42.4 µM.
For `CC(=O)O[C@H]1CCC(C)(C)[C@H]2CC[C@@]34O[C@@H]3C3=C(C)C(=O)O[C@@H]3C[C@H]4[C@]12C`, in series [1], the Activity entry is on record as “Non-Toxic”. Further, the IC50 in series [2] turned out to be 24.1 µM.
Taken in the same sequence, the figures for `C=C[C@]1(C)C=C2CC[C@H]3[C@](C)(C=O)[C@@H](O)CC[C@]3(C)[C@H]2CC1` [SANDARACOPIMARADIENOLAL] were “Non-Toxic” and > 10 µM.

The record behind these values is ChEMBL document CHEMBL4392880, “Bioactive Diterpenoids from the Stems of Euphorbia antiquorum” (J Nat Prod, 2019).
